Reference: patent US20050221196A1, “Redox shuttle for rechargeable lithium-ion cell” (priority 2004, published 2005)
Blank lines part the entries; values can stand above or below the molecule they belong to.

How the values were obtained:
[1] = Extended shuttle-protected overcharge cycling, LiFePO4/graphite cell, 100% overcharge each cycle; settings: 0.2 M shuttle, 0.5 M LiBOB in 1:2 PC:DEC
Experimental: Further testing was carried out to evaluate currents up to 1/3 of Imax in extended shuttle-protected overcharge tests. […] The shuttle plateau is near 3.9 V because the graphite electrode is near 0 V vs Li/Li^+ when the Li-ion coin cell is fully charged. The charging current was 0.55 mA, which corresponds to about a C/2-rate for the electrodes of this cell. The shuttle continues to perform well after 200 charge discharge cycles. […] In this case, the shuttle was able to protect against overcharge for about 190 cycles, followed by disappearance of the shuttle effect over the next few cycles. […] The loss of shuttle effect at high C rates may have been due to the Li4/3Ti5/3O4 negative electrode dropping below its plateau potential (1.55 V) before reaching the fully discharged state.

[2] = Cyclic voltammetry shuttle diffusion constant; assay type: physicochemical
Experimental: Further testing was carried out in coin cells made using 0.2 M 2,5-di-tert-butyl-1,4-dimethoxybenzene and 0.5 M LiBOB in 1:2 PC:DEC. […] For this cell the shuttle was singly ionized, the initially estimated electrode area was 1.3 cm^2 and the initially estimated electrode spacing was defined by the 25 μm separator. Based on measurements of the shuttle potential versus applied current, the effective diffusion constant D was estimated to be about 7×10^−7 cm^2/sec, and the maximum current density carried by the shuttle was estimated to be about 2.3 mA/cm^2. Using cyclic voltammetry, the shuttle diffusion constant was determined to be 1.6×10^−6 cm^2/sec. […] Thus, the effective area was less than 1.3 cm^2 and the effective length was greater than 25 μm.

[3] = Shuttle potential versus sequentially increased charge current in coin cell (Imax)
Source text: According to the literature (Richardson et al., J. Electrochem. Soc. Vol. 143, 3992 (1996)) the maximum shuttle current for a singly ionized shuttle is given by Imax=FAD C/d, [1] where F is Faraday's number, A is the electrode area, D is an effective diffusion constant of the shuttle species (taking into account both oxidized and reduced forms of the shuttle), C is the total concentration of the shuttle species and d is the distance between the electrodes. To obtain a large shuttle current, the electrolyte should impart a large diffusion constant, D, to the shuttle and support a high shuttle concentration, C. The shuttle diffusion constant usually will increase as the electrolyte solution viscosity decreases. A variety of charge carrying media may be employed in the electrolyte. Exemplary media are liquids or gels capable of solubilizing sufficient quantities of the lithium salt and the redox chemical shuttle so that a suitable quantity of charge can be transported from the positive electrode to negative electrode. […]
Further testing was carried out in coin cells made using 0.2 M 2,5-di-tert-butyl-1,4-dimethoxybenzene and 0.5 M LiBOB in 1:2 PC:DEC. […] Using cyclic voltammetry, the shuttle diffusion constant was determined to be 1.6×10^−6 cm^2/sec. […]

[4] = Maximum solubility of shuttle in electrolyte, determined visually; assay type: physicochemical; settings: in the Example 1 and Example 2 electrolyte (0.7 M LiBOB EC:DEC 1:2)
Experimental: Solubility limits were determined visually, after extended mixing.

[5] = Shuttle molecules tested in LiFePO4/graphite and LiFePO4/Li4/3Ti5/3O4 coin cells, C/10, 100% overcharge; settings: 0.1M shuttle, 0.7 M LiBOB PC:DMC:EC:DEC 1:2:1:2
Experimental: A variety of shuttle molecules (obtained from Aldrich Chemical Co. and used without further purification) were tested in LiFePO4/graphite and LiFePO4/Li4/3Ti5/3O4 coin cells. The LiFePO4 was obtained from Phostech Lithium as in Example 1 and the Li4/3Ti5/3O4 was obtained from NEI Corp. (Piscataway, N.J., USA). The graphite used was mesocarbon microbeads (MCMB) heat treated to near 2650° C. Electrodes were made from the active materials 10% by weight Super S carbon black (MMM Carbon, Belgium) and 10% by weight PVDF binder. LiFePO4 and Li4/3Ti5/3O4 electrodes were coated on aluminum foil and MCMB electrodes were coated on copper foil. […] The electrolyte was 0.7 M LiBOB in a 1:2:1:2 by volume mixture of PC:DMC:EC:DEC. The shuttle molecule was added in a concentration of 0.1M. Coin cells were charged using currents corresponding to a normal recharge in 10 hours (C/10) to 200% of their normal charge capacity (100% overcharge) or until a specified upper cut-off potential (normally 4.9V versus Li/Li^+) was reached, which ever occurred first and tested until the shuttle ceased to function. Four shuttles were employed, namely 1,3,5-tri-t-butyl-2-methoxybenzene (Example 9), 5-t-butyl-1,3-dinitro-2-methoxybenzene (Example 10), 2-t-butyl-4,6-dinitro-5-methylanisole (Example 11) and 4-t-butyl-2,6-diaminoanisole (Comparison Example 10). The coin cell test results are set out below in Table 2: […]

shuttle plateau [1]: ~3.9 V
shuttle diffusion constant [2]: 1.6×10^−6 cm^2/sec
potential at which the shuttle became oxidized at the LiFePO4 positive electrode ([3]; 0.2 M shuttle, 0.5 M LiBOB in 1:2 PC:DEC): about 3.9 V vs Li/Li^+
effective diffusion constant D (estimated from shuttle potential versus applied current) ([3]; electrode area 1.3 cm^2, 25 μm separator): about 7×10^−7 cm^2/sec
maximum room temperature solubility [4]: ~90 mM
Structure (SMILES): COc1cc(C(C)(C)C)c(OC)cc1C(C)(C)C [2,5-di-tert-butyl-1,4-dimethoxybenzene]

Potential V, Li/Li^+ [5]: 4.4 V
Structure (SMILES): COc1c(N)cc(C(C)(C)C)cc1N [Comp. Ex. 5, 4-t-butyl-2,6-diaminoanisole, reference compound]

Potential V, Li/Li^+ [5]: 4.4 V
Structure (SMILES): COc1c(C(C)(C)C)cc(C(C)(C)C)cc1C(C)(C)C [Example 9, 1,3,5-tri-t-butyl-2-methoxybenzene]

Continued, molecule first:

Structure (SMILES): COc1c([N+](=O)[O-])cc(C(C)(C)C)cc1[N+](=O)[O-] [Example 10, 5-t-butyl-1,3-dinitro-2-methoxybenzene]
Potential V, Li/Li^+ [5]: 4.9 V

Structure (SMILES): COc1c(C(C)(C)C)cc([N+](=O)[O-])c(C)c1[N+](=O)[O-] [Example 11, 2-t-butyl-4,6-dinitro-5-methylanisole]
Potential V, Li/Li^+ [5]: 4.9 V
